In patent US20090076044A1, “VEGFR INHIBITORS CONTAINING A ZINC BINDING MOIETY” (priority 2007, published 2009) one finds IC50 data, which are given here for 10 compounds.

Read-outs that look alike come from different tables or passages of the source.

Common to all, as to type: biochemical
For one assay, the target named is T1, human HER2 (Homo sapiens, UniProt P04626).
T1 construct: human HER2 amino acids 679-1255; host or cells: Sf9 insect cells (baculovirus)
Put plainly: HER2 enzymatic activity assay. The protocol: (d) An In Vitro Assay which Determines the Ability of a Test Compound to Inhibit HER2 Enzymatic Activity.
10 nM HER2 and 0.1 mg/ml polyEY were placed in the reaction buffer and 2 mM MnCl2, 1 μM ATP and 1% DMSO final were added. The reaction mixture was incubated for 2 hours at room temperature.
Purity>90% by SDS PAGE and Coomassie blue staining. MW=91.6 kDa. Specific Activity of 40 U/mg, where one unit of activity is defined as 1 nmol phosphate incorporated into 30 ug/ml Poly (Glu:Tyr)4:1 substrate per minute at 30° C. with a final ATP concentration of 100 μM. Enzyme is in 25 mM Tris-HCl, pH 8.0, 100 mM NaCl, 0.05% Tween-20, 50% glycerol, 10 mM reduced glutathione, and 3 mM DTT.

Another assay addresses T2, human VEGFR2 (Homo sapiens, UniProt P35968).
T2 construct: kinase domain (amino acids 790 to end) fragment; 6xHis (N); made in house; host or cells: Sf21 insect cells (baculovirus)
The assay can be described thus: VEGFR2/KDR radioisotope kinase assay. How it is done:
(a) An In Vitro Assay which-Determines the Ability of a Test Compound to Inhibit a Receptor Tyrosine Kinase.
The ability of compounds to inhibit receptor kinase (VEGFR2 and PDGFR-beta) activity was assayed using standard radioisotope assay for kinase. […] The proteins were purified using Ni2+/NTA agarose affinity column to purity
>85% as determined by coomassie blue-stained SDS-PAGE gel. For VEGFR2/KDR assay, p33 ATP tracers were incubated with purified recombinant VEGFR2 kinase to monitor the enzyme activity. In this assay, reactions were carried out in the presence of 0.1 mg/ml VEGFR2 kinase and 0.33 mg/ml myelin basic protein. The reaction was carried out at 30° C. for 120 minutes in a final assay condition contained 50 mM Tris-HCl, pH 7.5, 300 mM NaCl, 0.1 mM EGTA, 0.03% Brij 35, 270 mM sucrose, 1 mM benzamidine, 0.2 mM PMSF, 0.1% 2-mercaptoethanol and 100 μM ATP. An equal volume of 25% TCA was added to stop the reaction and precipitate the labeled proteins. Precipitated proteins were trapped onto glass fiber B filterplates and excess unlabeled p33 ATP was washed off. The plates were allowed to air-dry prior to the addition of 30 uL/well of Packard Microscint 20. The amount of incorporated isotope was measured using a Perkin Elmer TopCount plate reader. Different concentrations of compounds were added to reaction to assess the activity of compounds to inhibit VEGFR2 kinase. IC50 was calculated using Prism software with sigmoidal dose-response curve fitting.

The test system of another assay is HDAC. Put plainly: HDAC fluorimetric assay kit (HeLa nuclear extract). How it is done:
(b) An In Vitro Assay which Determines the Ability of a Test Compound to Inhibit HDAC Enzymatic Activity.
HDAC inhibitors were screened using an HDAC fluorimetric assay kit (AK-500, Biomol, Plymouth Meeting, Pa.). Test compounds were dissolved in dimethylsulphoxide (DMSO) to give a 20 mM working stock concentration. Fluorescence was measured on a WALLAC Victor 2 plate reader and reported as relative fluorescence units (RFU). Data were plotted using GraphPad Prism (v4.0a) and IC50's calculated using a sigmoidal dose response curve fitting algorithm. Each assay was setup as follows: Defrosted all kit components and kept on ice until use. Diluted HeLa nuclear extract 1:29 in Assay Buffer (50 mM Tris/Cl, pH 8.0, 137 mM NaCl, 2.7 mM KCl, 1 mM MgCl2). Prepared dilutions of Trichostatin A (TSA, positive control) and tested compounds in assay buffer (5× of final concentration). Diluted Fluor de Lys™ Substrate in assay buffer to 100 uM (50 fold=2× final). Diluted Fluor de Lys™ developer concentrate 20-fold (e.g. 50 μl plus 950 μl Assay Buffer) in cold assay buffer. Second, diluted the 0.2 mM Trichostatin A 100-fold in the 1× Developer (e.g. 10 μl in 1 ml; final Trichostatin A concentration in the 1× Developer=2 μM; final concentration after addition to HDAC/Substrate reaction=1 μM). Added Assay buffer, diluted trichostatin A or test inhibitor to appropriate wells of the microtiter plate. Added diluted HeLa extract or other HDAC sample to all wells except for negative controls. Allowed diluted Fluor de Lys™ Substrate and the samples in the microtiter plate to equilibrate to assay temperature (e.g. 25 or 37° C. Initiated HDAC reactions by adding diluted substrate (25 μl) to each well and mixing thoroughly. Allowed HDAC reactions to proceed for 1 hour and then stopped them by addition of Fluor de Lys™ Developer (50 μl). Incubated plate at room temperature (25° C.) for 10-15 min. Read samples in a microtiter-plate reading fluorimeter capable of excitation at a wavelength in the range 350-380 nm and detection of emitted light in the range 440-460 nm.

The mark [1] stands for this setting: 1 μM ATP, read-out: HER2/ErbB IC50.
The mark [2] stands for this setting: 100 μM ATP, read-out: VEGFR2 IC50.

T2 sequence (P35968 790-1356 limits assumed): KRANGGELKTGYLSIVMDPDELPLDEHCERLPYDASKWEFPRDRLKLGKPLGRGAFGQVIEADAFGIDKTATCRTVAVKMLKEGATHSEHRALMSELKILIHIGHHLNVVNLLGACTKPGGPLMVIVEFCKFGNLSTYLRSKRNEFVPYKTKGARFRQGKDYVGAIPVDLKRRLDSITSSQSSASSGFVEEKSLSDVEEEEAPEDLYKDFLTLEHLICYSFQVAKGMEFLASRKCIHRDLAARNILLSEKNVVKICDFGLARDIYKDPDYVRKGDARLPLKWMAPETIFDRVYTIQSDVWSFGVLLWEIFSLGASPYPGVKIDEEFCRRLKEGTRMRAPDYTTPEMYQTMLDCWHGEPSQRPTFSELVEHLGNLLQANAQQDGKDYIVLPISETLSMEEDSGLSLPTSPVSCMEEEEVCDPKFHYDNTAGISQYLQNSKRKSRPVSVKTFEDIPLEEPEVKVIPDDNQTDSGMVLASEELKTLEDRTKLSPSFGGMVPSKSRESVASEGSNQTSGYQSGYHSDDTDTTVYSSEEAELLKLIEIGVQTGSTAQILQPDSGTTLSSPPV
T1 sequence (P04626 679-1255): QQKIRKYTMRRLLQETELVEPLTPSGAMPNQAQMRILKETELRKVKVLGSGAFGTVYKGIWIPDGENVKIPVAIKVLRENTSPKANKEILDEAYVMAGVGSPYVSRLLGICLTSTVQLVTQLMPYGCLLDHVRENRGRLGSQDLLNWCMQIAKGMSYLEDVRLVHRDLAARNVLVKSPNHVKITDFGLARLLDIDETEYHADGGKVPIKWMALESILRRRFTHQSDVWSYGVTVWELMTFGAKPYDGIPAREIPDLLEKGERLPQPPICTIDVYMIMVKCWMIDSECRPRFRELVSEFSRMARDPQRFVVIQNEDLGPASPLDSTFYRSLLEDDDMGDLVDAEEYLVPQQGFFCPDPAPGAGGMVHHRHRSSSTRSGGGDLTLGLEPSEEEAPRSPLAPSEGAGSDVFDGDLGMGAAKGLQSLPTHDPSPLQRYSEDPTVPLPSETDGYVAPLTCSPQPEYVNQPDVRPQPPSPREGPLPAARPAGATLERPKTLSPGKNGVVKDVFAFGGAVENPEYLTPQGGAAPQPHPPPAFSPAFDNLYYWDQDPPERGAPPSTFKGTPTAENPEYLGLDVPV

Regarding `COc1cc2c(Nc3ccc4[nH]c(C)cc4c3F)ncnc2cc1OCCCCCCC(=O)NO` [Compound 14, 7-(4-(4-fluoro-2-methyl-1H-indol-5-ylamino)-6-methoxy-quinazolin-7-yloxy)-N-hydroxyheptanamide], the results for the IC50 on human HER2 (setting [1]), at human VEGFR2 (setting [2]) and with HDAC were 100 to 1000 nM, less than 100 nM and less than 100 nM, respectively.

For `COc1cc2ncnc(Nc3ccc4occc4c3)c2cc1OCCCCCCC(=O)NO` [Compound 2, 7-(4-(benzofuran-5-ylamino)-7-methoxyquinazolin-6-yloxy)-N-hydroxyheptanamide], the values for the IC50 at human HER2 (setting [1]), on human VEGFR2 (setting [2]) and in the assay with HDAC were less than 100 nM, 1000 to 10000 nM and less than 100 nM, respectively.

For the compound `Cc1cc2c(F)c(Oc3ncnc4cc(OCCCN5CCCC5)c(OCCCCCC(=O)NO)cc34)ccc2[nH]1` [Compound 16, 6-(4-(4-fluoro-2-methyl-1H-indol-5-yloxy)-7-(3-(pyrrolidin-1-yl)propoxy)quinazolin-6-yloxy)-N-hydroxyhexanamide], the figures for the IC50 at human HER2 (setting [1]), at human VEGFR2 (setting [2]) and in the assay on HDAC were less than 100 nM, less than 100 nM and 100 to 1000 nM, respectively.

For `Cc1cc2c(F)c(Nc3ncnc4cc(OCCCN5CCCC5)c(OCCCCCCC(=O)NO)cc34)ccc2[nH]1` [Compound 20, 7-(4-(4-Fluoro-2-methyl-1H-indol-5-ylamino)-7-(3-(pyrrolidin-1-yl)propoxy)quinazolin-6-yloxy)-N-hydroxyheptanamide], the IC50 on human HER2 (setting [1]) and on human VEGFR2 (setting [2]) was less than 100 nM in each case.

Turning to `COc1cc2c(Nc3ccc4[nH]c(C)cc4c3F)ncnc2cc1OCCCCCC(=O)NO` [Compound 13, 6-(4-(4-fluoro-2-methyl-1H-indol-5-ylamino)-6-methoxyquinazolin-7-yloxy)-N-hydroxyhexanamide], the IC50 on human HER2 (setting [1]), at human VEGFR2 (setting [2]) and in the assay on HDAC was less than 100 nM throughout.

In the case of `COc1cc2c(Oc3ccc4[nH]c(C)cc4c3F)ncnc2cc1OCCCCCCC(=O)NO` [Compound 11, 7-(4-(4-fluoro-2-methyl-1H-indol-5-yloxy)-6-methoxyquinazolin-7-yloxy)-N-hydroxyheptanamide], the results for the IC50 on human HER2, against human VEGFR2 and with HDAC were 1000 to 10000 nM, less than 100 nM and 100 to 1000 nM, respectively.

Consider `Cc1cc2c(F)c(Nc3ncnc4cc(OCCCN5CCCC5)c(OCCCCC(=O)NO)cc34)ccc2[nH]1` [Compound 18, 5-(4-(4-fluoro-2-methyl-1H-indol-5-ylamino)-7-(3-(pyrrolidin-1-yl)propoxy)quinazolin-6-yloxy)-N-hydroxypentanamide], for which the IC50 on human HER2 (setting [1]) was less than 100 nM; on human VEGFR2 (setting [2]), less than 100 nM; in the assay with HDAC, 100 to 1000 nM.

As for `COc1cc2c(Oc3ccc4[nH]c(C)cc4c3F)ncnc2cc1OCCCCCC(=O)NO` [Compound 10, 6-(4-(4-fluoro-2-methyl-1H-indol-5-yloxy)-6-methoxyquinazolin-7-yloxy)-N-hydroxyhexanamide], the IC50 at human HER2 (setting [1]) was 100 to 1000 nM; on human VEGFR2 (setting [2]), less than 100 nM; in the assay on HDAC it was 100 to 1000 nM.

Consider `Cc1cc2c(F)c(Oc3ncnc4cc(OCCCN5CCCC5)c(OCCCCCCC(=O)NO)cc34)ccc2[nH]1` [Compound 17], for which the results for the IC50 on human HER2 (setting [1]), on human VEGFR2 (setting [2]) and with HDAC were 100 to 1000 nM, less than 100 nM and less than 100 nM, respectively.

As for `Cc1cc2c(F)c(Nc3ncnc4cc(OCCCN5CCCC5)c(OCCCCCC(=O)NO)cc34)ccc2[nH]1` [Compound 19, 6-(4-(4-Fluoro-2-methyl-1H-indol-5-ylamino)-7-(3-(pyrrolidin-1-yl)propoxy)quinazolin-6-yloxy)-N-hydroxyhexanamide], the figures for the IC50 at human HER2 (setting [1]), on human VEGFR2 (setting [2]) and in the assay with HDAC were less than 100 nM, less than 100 nM and 100 to 1000 nM, respectively.
